Tests used:
[1] = system: H1299 cells lacking E2F1 protein; experiment: Apoptosis by Apo-BrdUrd in E2F1 knockdown H1299 cells; assay type: cell-based, human; details: 200 nM, 48 and 72 h, FIG. 6B
Method: (§1) To generate E2F1 knockdown cell lines H1299 cells were transfected by the calcium phosphate method either with empty BS/U6 RNAi vector or with BS/U6-E2F1 RNAi vector together with pcDNA-3, which encodes a neomycin-selectable marker. Forty-eight hours after transfection, cells were split and cultured in medium containing 400 μg/ml G418. Colonies that emerged from G418 selection were propagated and screened for E2F1 expression by Western blot. Several lines were isolated that had reduced E2F1 expression; the most efficient knockdown cell line, H1299-E2F1RNAi-16, was further characterized. A matching H1299-pBS/U6 cell line was generated in the same way.
(§2) Apoptosis was assayed using PharMingen “APO-BrdU” kit without modification. After treatment with flavopiridol, cells were trypsinized and resuspended in PBS. Cells were counted and 1-2×10^6 cells were fixed in 1% paraformaldehyde in PBS on ice, pelleted, washed twice in PBS, and fixed with ice-cold 70% ethanol overnight. The next day, cells were pelleted, resuspended, and washed with wash buffer. Pelleted cells were resuspended with reaction buffer, TdT enzyme, and bromo-dUTP for 1 hour at 37° C. […] One×10^4 cells per experimental condition were analyzed for fluorescence on a Becton-Dickinson FACScan using Cell Quest software.

[2] = system: Mcl-1; experiment: Western blot of Mcl-1 in H1299 cells; assay type: cell-based, human
Method: (§3) The H1299 non-small cell lung cancer line are grown in DMEM supplemented with 2 mM L-glutamine (Life Technologies, Inc.), 5% fetal bovine serum (Hyclone), and 1% penicillin/streptomycin (Life Technologies, Inc.). NIH3T3 cells constitutively expressing human Mcl-1 were created by transfecting cells with pcDNA-3-Mcl-1 and selecting for transformants in the presence of 400 μg/ml G418. Mouse embryo fibroblasts from E2F1-null animals were grown in DMEM with 15% fetal bovine serum and 1% penicillin/streptomycin. […] The drug was diluted directly into the medium to indicated concentrations followed by incubation at 37° C. Untreated cells and cells treated with DMSO alone behaved identically. Cell lysates were normalized for total protein content (50 μg) and subjected to SDS-PAGE as described previously. Primary antibodies used in these studies consisted of E2F1 (SantaCruz Biotechnology; SC-251), Mcl-1 (Santa Cruz; SC-819), Rb (PharMingen; 14031A), Flag (Sigma; F-3615) and β-actin (Sigma; A5441). Detection of proteins was accomplished using horseradish-peroxidase-conjugated secondary antibodies and enhanced chemiluminescence (ECL) purchased through Amersham. Northern blots were performed as described previously.

[3] = system: human Mcl-1; experiment: Western blot of Mcl-1 in NIH3T3 cells stably expressing human Mcl-1; assay type: cell-based, murine; details: 200 nM, up to 72 hours, FIG. 5A
Method: as §3

[4] = system: H1299-Mcl-1-11 and H1299-Mcl-1-13 cells; experiment: Apoptosis by Apo-BrdUrd in H1299 cells stably expressing human Mcl-1; assay type: cell-based; details: 200 nM, 48, 72 and 96 hours, FIG. 4B
Method: H1299 cells lines, constitutively expressing human Mcl-1 under control of the CMV promoter, were obtained by transfecting cells with pcDNA3 or pcDNA3-Mcl-1 and selecting for transformants by growth in 400 μg/ml G418. G418-resistant lines were screened for expression of human Mcl-1. Two Mcl-1-positive cell lines emerged and were characterized. A matching G418-resistant H1299-pcDNA3 cell line was generated in the same way. Apoptosis was assayed using PharMingen “APO-BrdU” kit without modification. After treatment with flavopiridol, cells were trypsinized and resuspended in PBS. Cells were counted and 1-2×10^6 cells were fixed in 1% paraformaldehyde in PBS on ice, pelleted, washed twice in PBS, and fixed with ice-cold 70% ethanol overnight. The next day, cells were pelleted, resuspended, and washed with wash buffer. Pelleted cells were resuspended with reaction buffer, TdT enzyme, and bromo-dUTP for 1 hour at 37° C. Cells were subsequently rinsed with 1.0 ml of PBS and resuspended with fluorescein-labeled anti-BrdUrd in the dark for 30 min at room temperature. Propidium iodide and RNase were added, and the cells were incubated for 30 min. One×10^4 cells per experimental condition were analyzed for fluorescence on a Becton-Dickinson FACScan using Cell Quest software.

[5] = system: Mcl-1; experiment: Western blot of Mcl-1 in E2F1 knockdown H1299 cells; assay type: cell-based, human; details: E2F1 knockdown H1299, 8 hours, FIG. 6A
Method: as §1
(§4) Cell lysates were normalized for total protein content (50 μg) and subjected to SDS-PAGE as described previously. Primary antibodies used in these studies consisted of E2F1 (SantaCruz Biotechnology; SC-251), Mcl-1 (Santa Cruz; SC-819), Rb (PharMingen; 14031A), Flag (Sigma; F-3615) and β-actin (Sigma; A5441). Detection of proteins was accomplished using horseradish-peroxidase-conjugated secondary antibodies and enhanced chemiluminescence (ECL) purchased through Amersham. Northern blots were performed as described previously.

[6] = system: H1299 lung carcinoma cells; experiment: Apoptosis by Apo-BrdUrd incorporation in H1299 cells; assay type: cell-based, human
Method: (§5) The H1299 non-small cell lung cancer line are grown in DMEM supplemented with 2 mM L-glutamine (Life Technologies, Inc.), 5% fetal bovine serum (Hyclone), and 1% penicillin/streptomycin (Life Technologies, Inc.). NIH3T3 cells constitutively expressing human Mcl-1 were created by transfecting cells with pcDNA-3-Mcl-1 and selecting for transformants in the presence of 400 μg/ml G418. Mouse embryo fibroblasts from E2F1-null animals were grown in DMEM with 15% fetal bovine serum and 1% penicillin/streptomycin. […] The drug was diluted directly into the medium to indicated concentrations followed by incubation at 37° C. Untreated cells and cells treated with DMSO alone behaved identically.
(§6) Apoptosis was assayed using PharMingen “APO-BrdU” kit without modification. After treatment with flavopiridol, cells were trypsinized and resuspended in PBS. Cells were counted and 1-2×10^6 cells were fixed in 1% paraformaldehyde in PBS on ice, pelleted, washed twice in PBS, and fixed with ice-cold 70% ethanol overnight. The next day, cells were pelleted, resuspended, and washed with wash buffer. Pelleted cells were resuspended with reaction buffer, TdT enzyme, and bromo-dUTP for 1 hour at 37° C. Cells were subsequently rinsed with 1.0 ml of PBS and resuspended with fluorescein-labeled anti-BrdUrd in the dark for 30 min at room temperature. Propidium iodide and RNase were added, and the cells were incubated for 30 min. One×10^4 cells per experimental condition were analyzed for fluorescence on a Becton-Dickinson FACScan using Cell Quest software.

[7] = system: wild-type NIH3T3 cells; experiment: Apoptosis by Apo-BrdUrd in wild-type NIH3T3 cells; assay type: cell-based, murine; details: 200 nM, 48 and 72 hours, FIG. 5C
Method: as §6

[8] = system: Mcl-1 mRNA; experiment: Northern blot of endogenous Mcl-1 mRNA in wild-type NIH3T3 cells; assay type: cell-based, murine; details: wild-type 3T3 cells, total RNA, FIG. 5B
Method: as §4

[9] = system: NIH3T3 cells stably expressing human Mcl-1; experiment: Apoptosis by Apo-BrdUrd in NIH3T3 cells stably expressing Mcl-1; assay type: cell-based, murine; details: 200 nM, 72 hours, FIG. 5C
Method: as §5, §2

[10] = system: Bcl-2; experiment: Western blot of Bcl-2 in H1299 cells; assay type: cell-based, human; details: H1299, 200 nM
[11] = system: Rb; experiment: Rb Western blot (Rb phosphorylation) in H1299 cells; assay type: cell-based, human; details: H1299, 200 nM, time course FIG. 3A
Method: as §4

[12] = system: Bok; experiment: Western blot of Bok in H1299 cells; assay type: cell-based, human; details: H1299, 200 nM
[13] = system: E2F1; experiment: Western blot of E2F1 in H1299 cells; assay type: cell-based, human
Method: as §3

[14] = system: E2F1 null mouse embryo fibroblasts; experiment: Apoptosis by Apo-BrdUrd in E2F1 null mouse embryo fibroblasts; assay type: cell-based; details: 200 nM, 72 hours, FIG. 6C
Method: as §5, §2

[15] = H1299, 200 nM, 12 hours, extended time course FIG. 3A
[16] = H1299, increasing doses, 48 hours, FIG. 1A

CN1CC[C@H](c2c(O)cc(O)c3c(=O)cc(-c4ccccc4Cl)oc23)[C@H](O)C1 [flavopiridol]
Apoptosis in H1299 cells lacking E2F1 compared with empty RNAi vector cells [1]: less sensitive to flavopiridol-induced cell death
Mcl-1 protein levels at 200 nM and higher doses ([2]; H1299, 200 nM and higher, 48 hours, FIG. 1A): undetectable
Mcl-1 levels after 12 hours [2, 15]: undetectable
Mcl-1 levels by 36 hours ([2]; H1299, 200 nM, 36 hours, FIG. 3A): Low levels of Mcl-1 were apparent
Time after which Mcl-1 levels began to fall ([2]; H1299, 200 nM, FIG. 2A): 3 h
Time after which Mcl-1 levels were maximally reduced ([2]; H1299, 200 nM, FIG. 2A): 12 h
Mcl-1 protein levels, dose response [2, 16]: significantly reduced starting at the 100-nM dose
Human Mcl-1 protein levels in stably transfected NIH3T3 cells [3]: no changes are seen in the levels of Mcl-1
Apoptosis in stably transfected Mcl-1 clones compared with control cells [4]: resistant to apoptosis induced by flavopiridol
Mcl-1 protein levels in H1299 cells lacking E2F1 [5]: decreased in a manner identical to that of the control cells
Apoptosis after 48 and 72 hours ([6]; H1299, 200 nM, 48 and 72 hours, FIG. 3B): larger degrees of apoptosis
Apoptosis after 24 hours ([6]; H1299, 200 nM, 24 hours, FIG. 3B): Minimal levels of apoptosis
Apoptosis at 36 hours ([6]; H1299, 200 nM, 36 hours, FIG. 3B): apoptosis was evident
Apoptosis at times <18 hours ([6]; H1299, 200 nM, <18 hours, FIG. 2B): minimal effect on apoptosis
Apoptosis (Apo-BrdUrd incorporation), dose response ([6]; H1299, 48 hours of treatment, FIG. 1B): minimal elevations in apoptosis, as measured by Apo-BrdUrd incorporation, are seen until a dose of 200 nM was reached
Apoptosis in wild-type NIH3T3 (pcDNA3 alone) [7]: undergoes apoptosis starting after 48 hours but is more pronounced after 72 hours of treatment
Time within which endogenous Mcl-1 levels are reduced [8]: ≤ 6 h
Apoptosis in NIH3T3 stably expressing Mcl-1 [9]: minimal increases in apoptosis
Bcl-2 levels [10]: No changes
Rb phosphorylation [11]: no changes in Rb phosphorylation
Bok levels [12]: No changes
E2F1 levels after 12 hours [13, 15]: E2F1 levels had risen
E2F1 levels after 72 hours ([13]; H1299, 200 nM, 72 hours, FIG. 3A): E2F1 levels fell
Time after which E2F1 levels reached a plateau ([13]; H1299, 200 nM, FIG. 2A): 9 h
Time after which increases in E2F1 protein are apparent ([13]; H1299, 200 nM, FIG. 2A): 3 h
E2F1 protein levels, dose response [13, 16]: markedly elevated starting at the 100-nM dose
Apoptosis in mouse embryo fibroblast lines lacking E2F1 compared with wild-type littermates [14]: less sensitive to flavopiridol-induced cell death

— patent US20070060615A1, “Method of Modulating Apoptosis Through Modulation of E2F1” (University of South Florida, priority 2003, published 2007)
